Assay results from patent US20110306631A1, “TRIPLE SUBSTITUTED PHENANTHROLINE DERIVATIVES FOR THE TREATMENT OF NEURODEGENERATIVE OR HAEMATOLOGICAL DISEASES OR CONDITIONS, OR CANCER” (NOSCIRA, S.A., priority 2008, published 2011).

Assays:
[1] = test system: SH-SY5Y human neuroblastoma cells; test: Protection against hydrogen peroxide-induced cell death (LDH); format: cell-based; settings: compound 1 h before H2O2 100 μM during 24 h
Description: The aim of this assay is to determine the neuroprotective effect of the compounds of formula (I), when human neuroblastoma cells are exposed to oxidative stress induced by hydrogen peroxide, which is highly deleterious to the cell and its accumulation causes oxidation of cellular targets such as DNA, proteins, and lipids leading to mutagenesis and cell death.
SH-SY5Y human neuroblastoma cells are seeded into 96-well culture plate at a density of 10^4 cells/well. Cells are exposed to different concentrations of the compound one hour before the treatment with H2O2 100 μM during 24 h. 5 mM N-acetylcysteine (NAC), a known anti-oxidant agent was used as a positive control, and preincubated 1 hour before the treatment with H2O2. After 24 h, the medium is removed and cells attached to the bottom of the well are lysed by adding 50 μl of Triton X-100 1% in Krebs-Hepes during 5 minutes at room temperature. For LDH release quantification, Roche cytotoxicity detection kit (Cat. No. 11 644 793 001) was used.

SH-SY5Y cells = test: Neuroprotection against Aβ25-35 toxicity (LDH); format: cell-based, human; settings: pre-treated 1 hour, then 24 hours 200 μM Aβ25-35
Description: In order to evaluate potential neuroprotection of compounds, SH-SY5Y cells, cultured in 96-well plates, were pre-treated for 1 hour with the compound at different concentrations and then exposed 24 hours to 200 μM Aβ25-35 (Neosystem) to induce extensive oxidative stress and cell death. The ability of the compound of protecting against this toxicity is then evaluated by measuring intracellular LDH, using the colorimetric LDH assay.
It is widely accepted that the neurotoxic activity of Aβ resides within amino acids 25-35 (see e.g. Yankner B A et al., (1990) Neurotrophic and neurotoxic effects of amyloid β protein: reversal by tachykinin neuropeptides; Science 250:279-282).

[2] = test system: SH-SY5Y human neuroblastoma cells; test: Toxicity: cell viability by LDH activity release; format: cell-based; settings: 24 h
Description: The potential effects on cell viability of the tested compounds were assessed in SH-SY5Y human neuroblastoma cells, by quantification of Lactate dehydrogenase (LDH) activity release. SH-SY5Y human neuroblastoma cells were seeded into 96-well culture plates at 10^4 cells/well. The medium was then removed and the cells incubated with different concentrations of the compounds during 24 h. […] After 24 h, the medium was removed and cells attached to the bottom of the well were lysed by adding 50 μl of Krebs-Hepes; Triton X-100 1% during 5 minutes at room temperature. For LDH release quantification, the Roche cytotoxicity detection kit (Cat. No. 11 644 793 001) was used. The LDH activity was measured by its absorbance at 492 nm with reference wavelength 620 nm.
In Table 2, for each compound the maximum concentration at which cell viability was tested is indicated in the second column. In the third column, it is indicated whether at this maximum concentration the compound affected or not cell viability (>20% of cell death).

[3] = test system: Aβ (1-40) secretion, CHO7W (stably transfected with human APP751 wt cDNA); test: Inhibition of Aβ(1-40) secretion (ELISA of cellular supernatants); format: cell-based; settings: CHO7W cells, Aβ(1-40) in supernatants
Source text: To quantitate Aβ secretion ELISA-based method was used. The assay consists in detection of antigen by selective monoclonal anti-Aβ-antibodies at two different epitopes forming a “Sandwich-complex”, that is detected by colorimetric measure due to the binding of a secondary antibody conjugated with peroxidase that catalyses the conversion of a substrate or chromogen, TMB, into a coloured product, directly proportional to the peptide quantity in the sample. The Aβ production has been analyzed by ELISA, using a colorimetric commercial kit: H-amuloid b-30 ELISA (The Genetics Company).
Aβ (1-40) were quantified from cellular supernatants. An APP-transfected cell line has been employed for the experiments: CHO7W (stably transfected with human APP751 wt cDNA). The cells were grown in a culture medium consisting of DMEM supplemented with 2% Fetal bovine serum, 1% penicillin-streptomycin, 1% L-glutamine and 200 μg/ml G418. Cells are seeded in 96-well culture microplate, at 5000 cells/well and treatment with different compounds at different concentrations is performed 24 hour after seeding.

[4] = test system: SH-SY5Y human neuroblastoma cells; test: Protection against 6-OHDA-induced cell death (LDH); format: cell-based; settings: preincubated 2 hours before 6-OHDA 75 μM during 16 hours, 10% Foetal bovine serum
Source text: The aim of this experiment is to determine the protective effect of the compounds of formula (I) against the toxicity caused by 6-OHDA. This toxin induces a cell death similar to which occurs in Parkinson's disease, destroying dopaminergic neurons (“MPTP and 6-hydroxydopamine-induced neurodegeneration as models for Parkinson's disease: neuroprotective strategies”; Grunblatt E, et al.; J Neurol. 2000 April; 247 Suppl 2:II95-102).
Two or three days before the experiment, the SH-SY5Y human neuroblastoma cells are seeded into 96-well culture plate at a density of 10^4 cells/well. Cells are exposed to the treatment with 6-OHDA and, finally, cell death is measured by LDH quantification. As positive control we used NAC.
NAC and the compound of formula (I) are preincubated during 2 hours before the treatment with 6-OHDA 75 μM during 16 hours. The assay is performed in medium containing 10% Foetal bovine serum.
For each compound the minimum concentration of compound of formula (I) at which a neuroprotective effect is shown.

[5] = maximum concentration tested 100 μM
[6] = maximum concentration tested 1000 μM

Row | SMILES | Protect H2O2 (minimum concentration for which protection against H2O2 was determined) [1] [µM] | Protection β-Amiloyd (minimum concentration showing neuroprotection against Aβ25-35 toxicity) (SH-SY5Y cells) [µM] | Yes/No: compound affected cell viability at maximum concentration tested [2, 5] | inhibition Aβ secretion (minimum concentration at which the compound inhibits beta-amyloid secretion) [3] [µM] | Protection 6-OHDA (minimum concentration at which a neuroprotective effect is shown) [4] [µM] | Yes/No: compound affected cell viability at maximum concentration tested [2, 6]
1 | COc1cc2cccnc2c2nc(/C=N/O)cc(SC)c12 [A, 5-methoxy-4-methylsulfanyl-[1,10]-phenanthroline-2-carbaldehyde oxime] | 0.05 | 5 | Y (affected or not cell viability (>20% of cell death)) | 0.1 | 0.05 | –
2 | COc1cc(/C=N/O)nc2c1c(F)cc1cccnc12 [B, 5-fluoro-4-methoxy-[1,10]-phenanthroline-2-carbaldehyde oxime] | 0.05 | 5 | – | 1 | 0.05 | N (affected or not cell viability (>20% of cell death))
3 | COCCOc1cc2cccnc2c2nc(/C=N/O)cc(OC)c12 [C, 4-methoxy-5-(2-methoxy-ethoxy)-[1,10]-phenanthroline-2-carbaldehyde oxime] | 0.005 | 5 | – | 0.1 | 0.5 | N (affected or not cell viability (>20% of cell death))
4 | CSc1cc(/C=N/O)nc2c1c(C)cc1cccnc12 [D, 5-methyl-4-methylsulfanyl-[1,10]phenanthroline-2-carbaldehyde oxime] | 0.5 | 0.5 | – | 1 | 0.05 | N (affected or not cell viability (>20% of cell death))
5 | COc1cc2c(SC)cc(/C=N/O)nc2c2ncccc12 [E, 6-methoxy-4-methylsulfanyl-[1,10]phenanthroline-2-carbaldehyde oxyme] | 0.05 | 10 | Y (affected or not cell viability (>20% of cell death)) | 10 | 0.5 | –
6 | COc1cc2c(=O)cc(/C=N/O)[nH]c2c2ncccc12 [F, 6-methoxy-4-oxo-1,4-dihydro-[1,10]phenanthroline-2-carbaldehyde oxime] | – | – | – | – | 10 | N (affected or not cell viability (>20% of cell death))
